# Results published in US12551458B2, “Topical pharmaceutical composition containing phospholipids” (EGIS GYÓGYSZERGYÁR ZRT., priority 2021, dated 2026).
# Assays:
# [1] = tested on: allodynia in nerve-ligated mice; settings: cited from earlier work
# pain = settings: compositions containing 1 and 3% of pregabalin; cited from earlier work
# [2] = tested on: neuropathic pain in a human patient; settings: topical aqueous solution; cited from earlier work
# [3] = Solubility of pregabalin in solvents; settings: any solvents
# [4] = tested on: CCI operated paw of rats (neuropathic pain); experiment: Rat chronic constriction injury (CCI) model, paw withdrawal threshold with electronic von Frey device; format: in vivo, Wistar rats; settings: oral 16.66 mg/kg
# Excerpt: Furthermore, based on the article Bennett G J, at al (Pain., A peripheral mononeuropathy in rat that produces disorders of pain sensation like those seen in man. 1988 April; 33(1):87-107) we have developed a method for the examination of the compositions of the present invention. Thus, we have examined the compositions according to the present invention also with a different model for measuring the alleviation of the peripheral neuropathic pain also. Namely, we have carried out examinations on rats using Chronic constriction injury (CCI) model. Three weeks following nerve injury rats were assessed for hind paw mechanical withdrawal thresholds. The paw withdrawal threshold (PWT) was determined with an Electronic von Frey device according to the modified up-down method of Dixon (Efficient analysis of experimental observations., Annu Rev Pharmacol Toxicol. 1980; 20:441-62). […] The method and results are shown in example 3 and on FIG. 9.
# Briefly, under isoflurane anesthesia small blunt dissection was made into the skin of rat right thigh then three loosely constrictive ligatures were placed around common sciatic nerve (chronic constriction injury CCI). Three weeks following nerve injury rats were assessed for hind paw mechanical withdrawal thresholds. […]
# [5] = Pharmacokinetic studies in rats (blood levels of pregabalin)
smiles,measurement,setting,value
CC(C)C[C@H](CN)CC(=O)O [pregabalin],Time of maximum allodynia alleviating effect,[1]; topical 2.5% aqueous solution without other ingredients,1 h
same,Alleviating effect after 3 hours and 6 hours,[1]; topical 2.5% aqueous solution,essentially disappeared
same,Time after which the pain alleviation effect decreased,pain,1.5 to 2 h
same,Time for which neuropathic pain was reduced,[2],6 h
same,Solubility,[3],poor
same,Reduction of hypersensitivity after oral administration,[4],not able to reduce hypersensitivity
same,Blood levels after oral administration,[5]; oral 16.66 mg/kg,relatively high blood levels
same,Amount entering the bloodstream during topical treatment,[5]; topical treatment,very small amounts
